Assay [1] concerns the target T1, Integrin alpha-IIb/beta-3 (Homo sapiens) (UniProt P05106+P08514). The assay is described as follows: Inhibition of platelet aggregation at 0.1 mM in platelet-rich plasma (PRP) of citreated rabbit heart blood. In kind it is functional. As to conditions: Oryctolagus cuniculus, target entry is the homologue from another species.
The target in assay [2] is T1, Integrin alpha-IIb/beta-3 (Homo sapiens). As to the kind of experiment: Inhibition of platelet aggregation at 0.3 mM in platelet-rich plasma (PRP) of citreated rabbit heart blood. The assay is classed as functional. The following applies: Oryctolagus cuniculus, target entry is the homologue from another species.
Assay [3] has the same target. The assay is described as follows: Inhibition of platelet aggregation at 1 mM in platelet-rich plasma (PRP) of citreated rabbit heart blood. The following applies: Oryctolagus cuniculus, target entry is the homologue from another species. The assay is classed as functional.
The target of assay [4] is Protein farnesyltransferase (Homo sapiens, UniProt P49354+P49356). The assay is described as follows: Inhibition of Farnesyltransferase by Scintillation Proximity Assay. The assay is classed as protein-complex assay. For orientation: SPA uses beads or plates that emit light when radiolabelled molecules are held near them.
Assay [5] deals with Protein farnesyltransferase (Bos taurus, UniProt P29702+P49355). The assay is described as follows: In vitro inhibition of farnesylation of v-Ki-Ras by bovine farnesyl transferase. In kind it is protein-complex assay.
The target of assay [6] is Integrin alpha-5/beta-1 (Homo sapiens, UniProt P05556+P08648). The assay is described as follows: Inhibition of mouse melanoma B16-F10 cell adhesion to fibronectin. The assay is classed as functional, cell-based.

Bridge positions count the residues as written; N and C are the ends. Peptide text beside a SMILES is read from it.

Chain of Integrin alpha-5/beta-1 (P05556 21-798 limits assumed): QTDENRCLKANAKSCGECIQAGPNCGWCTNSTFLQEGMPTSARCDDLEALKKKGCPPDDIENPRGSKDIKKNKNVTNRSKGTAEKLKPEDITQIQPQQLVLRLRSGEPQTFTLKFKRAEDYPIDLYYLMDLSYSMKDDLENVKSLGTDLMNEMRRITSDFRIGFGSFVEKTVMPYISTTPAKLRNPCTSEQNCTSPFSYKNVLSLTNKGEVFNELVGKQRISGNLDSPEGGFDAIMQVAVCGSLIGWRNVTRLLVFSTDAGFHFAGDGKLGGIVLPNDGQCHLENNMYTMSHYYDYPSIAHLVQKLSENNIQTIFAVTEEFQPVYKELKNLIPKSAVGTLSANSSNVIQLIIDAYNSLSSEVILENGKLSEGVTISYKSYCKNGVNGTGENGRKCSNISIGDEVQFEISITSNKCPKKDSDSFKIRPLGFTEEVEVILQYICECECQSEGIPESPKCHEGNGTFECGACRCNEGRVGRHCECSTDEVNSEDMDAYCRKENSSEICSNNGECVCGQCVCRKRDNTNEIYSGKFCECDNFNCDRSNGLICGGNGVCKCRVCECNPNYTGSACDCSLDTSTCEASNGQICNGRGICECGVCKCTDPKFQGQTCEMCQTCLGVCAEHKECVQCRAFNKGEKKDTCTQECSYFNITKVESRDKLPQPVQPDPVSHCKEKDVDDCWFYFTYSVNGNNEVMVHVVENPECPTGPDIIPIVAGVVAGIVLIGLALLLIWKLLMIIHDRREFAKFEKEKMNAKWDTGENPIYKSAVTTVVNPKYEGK
Chain of Integrin alpha-5/beta-1 (P08648 42-894 limits assumed): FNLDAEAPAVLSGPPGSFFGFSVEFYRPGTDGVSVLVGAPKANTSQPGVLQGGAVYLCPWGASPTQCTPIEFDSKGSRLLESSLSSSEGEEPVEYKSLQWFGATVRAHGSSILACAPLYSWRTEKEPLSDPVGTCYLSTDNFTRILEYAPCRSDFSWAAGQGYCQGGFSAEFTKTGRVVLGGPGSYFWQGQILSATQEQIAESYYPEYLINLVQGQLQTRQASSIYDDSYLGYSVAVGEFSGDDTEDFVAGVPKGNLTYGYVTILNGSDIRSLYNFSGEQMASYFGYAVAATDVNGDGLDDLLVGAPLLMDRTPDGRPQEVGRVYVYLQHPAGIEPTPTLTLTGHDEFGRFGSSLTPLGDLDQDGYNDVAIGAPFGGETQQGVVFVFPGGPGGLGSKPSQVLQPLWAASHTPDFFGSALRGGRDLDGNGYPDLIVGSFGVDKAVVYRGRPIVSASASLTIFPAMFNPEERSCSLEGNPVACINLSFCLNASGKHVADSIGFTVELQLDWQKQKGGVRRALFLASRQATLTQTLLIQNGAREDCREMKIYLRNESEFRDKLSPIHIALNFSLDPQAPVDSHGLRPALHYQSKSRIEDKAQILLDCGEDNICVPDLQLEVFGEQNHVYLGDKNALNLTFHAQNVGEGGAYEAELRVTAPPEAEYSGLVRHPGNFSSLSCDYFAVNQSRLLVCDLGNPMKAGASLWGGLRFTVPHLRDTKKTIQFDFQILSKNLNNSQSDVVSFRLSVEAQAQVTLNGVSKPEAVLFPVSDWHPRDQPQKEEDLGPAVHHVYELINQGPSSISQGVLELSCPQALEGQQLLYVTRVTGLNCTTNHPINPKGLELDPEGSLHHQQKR
Chain of Integrin alpha-5/beta-1 (P08648 895-1049 limits assumed): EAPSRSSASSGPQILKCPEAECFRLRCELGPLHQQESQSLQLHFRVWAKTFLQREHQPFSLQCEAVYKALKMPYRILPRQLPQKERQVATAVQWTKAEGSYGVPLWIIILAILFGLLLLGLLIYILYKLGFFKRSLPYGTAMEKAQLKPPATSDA

With `CC(C)[C@H](NC(=O)[C@H]1CC(=O)NCC(=O)N[C@H](CC(N)=O)C(=O)N[C@@H](Cc2c[nH]c3ccccc23)C(=O)N[C@H](Cc2c[nH]cn2)C(=O)NCC(=O)N[C@H]([C@@H](C)O)C(=O)N[C@@H](C)C(=O)N2CCC[C@@H]2C(=O)N1)C(=O)N[C@H](C(=O)NCC(=O)N[C@@H](CCCN=C(N)N)C(=O)NCC(=O)N[C@@H](CC(=O)O)C(=O)N[C@@H](CO)C(=O)N1CCC[C@@H]1C(=O)N[C@@H](C)C(=O)O)[C@@H](C)O`, the Inhibitory ratio in assay [1] was 28.3%; in assay [2], 78.4%; in assay [3], 92.1%.
For `CSCC[C@H](NC(=O)[C@@H](NC(=O)[C@@H](NC(=O)[C@H](CS)NC(=O)[C@H]1CCCN1C(=O)[C@H](CC(C)C)NC(=O)CNC(=O)[C@H](CCSC)NC(=O)[C@H](CO)N[C@H]1CC(=O)NCC(=O)N[C@H](CC(N)=O)C(=O)N[C@@H](Cc2c[nH]c3ccccc23)C(=O)N[C@H](Cc2c[nH]cn2)C(=O)NCC(=O)N[C@H]([C@@H](C)O)C(=O)N[C@@H](C)C(=O)N2CCC[C@@H]2C(=O)N1)C(C)C)C(C)C)C(=O)O`, the concentration for half-maximal inhibition (IC50) stood at 0.42 µM in assay [4] and 560 µM in assay [5].
With H-VTGRGDSPA-OH [listing 1 of 2 here], in assay [6], half-maximal inhibition (IC50) required 1100 µM.
As for `CC(C)[C@H](NC(=O)[C@H](C)NC(=O)[C@H](Cc1ccc(O)cc1)NC(=O)[C@@H](NC(=O)[C@@H]1CC(=O)NCC(=O)N[C@@H](CC(N)=O)C(=O)N[C@@H](Cc2c[nH]c3ccccc23)C(=O)N[C@@H](Cc2cnc[nH]2)C(=O)NCC(=O)N[C@@H]([C@@H](C)O)C(=O)N[C@@H](C)C(=O)N2CCC[C@H]2C(=O)N1)C(C)C)C(=O)N[C@H](C(=O)NCC(=O)N[C@@H](CCCNC(=N)N)C(=O)NCC(=O)N[C@@H](CC(=O)O)C(=O)N[C@@H](CO)C(=O)N1CCC[C@H]1C(=O)N[C@@H](C)C(N)=O)[C@@H](C)O` (GNWHGTAPDVYAVTGRGDSPA-NH2; lactam N-9), the IC50 in assay [6] (b16-f10) was 800 µM.
H-VYAVTGRGDSPA-NH2 yielded an IC50 in assay [6] of 1000 µM.
`CSCC[C@H](NC(=O)[C@@H](NC(=O)[C@@H](NC(=O)[C@H](CS)NC(=O)[C@@H]1CCCN1C(=O)[C@H](CC(C)C)NC(=O)CNC(=O)[C@H](CCSC)NC(=O)[C@@H](N)CO)C(C)C)C(C)C)C(=O)O`: the IC50 in assay [4] stood at 1.2 µM.
Compound `CC(C)[C@H](NC(=O)[C@@H]1CC(=O)NCC(=O)N[C@@H](CC(N)=O)C(=O)N[C@@H](Cc2c[nH]c3ccccc23)C(=O)N[C@@H](Cc2cnc[nH]2)C(=O)NCC(=O)N[C@@H]([C@@H](C)O)C(=O)N[C@@H](C)C(=O)N2CCC[C@H]2C(=O)N1)C(=O)N[C@H](C(=O)NCC(=O)N[C@@H](CCCNC(=N)N)C(=O)NCC(=O)N[C@@H](CC(=O)O)C(=O)N[C@@H](CO)C(=O)N1CCC[C@H]1C(=O)N[C@@H](C)C(=O)O)[C@@H](C)O` showed an IC50 in assay [6] of 290 µM.
For the compound H-VTGRGDSPA-OH [listing 2 of 2 here], the Inhibitory ratio was found to be 20.3% in assay [2] and 61.2% in assay [3].

Broadly, the IC50 is the concentration needed to halve the response being measured. High values mean weaker potency in that assay, low ones greater potency in that assay.

The record behind these values is ChEMBL document CHEMBL1145727, “Improvement of biological activity and proteolytic stability of peptides by coupling with a cyclic peptide” (Bioorg Med Chem Lett, 2003).
